Data on 11 compounds can be found in US20230250096A1, “SUBSTITUTED PHENYL-1H-PYRROLO[2,3-c] PYRIDINE DERIVATIVES” (Janssen Pharmaceutica NV, priority 2021, published 2023).

Like-named read-outs stand apart in the source and are kept apart here.

By IC50 is commonly meant the concentration that inhibits the measured activity by half.

For series [1], the target named is T1, menin/MLL (terbium chelate-labeled menin, FITC-MBM1 peptide) (Homo sapiens, UniProt O00255, T541A).
T1 construct: Menin (a.a 1-610-6xhis tag, 2.3 mg/mL in 20 mM Hepes)
T1 sequence (O00255 with tags, fused parts or gaps T541A): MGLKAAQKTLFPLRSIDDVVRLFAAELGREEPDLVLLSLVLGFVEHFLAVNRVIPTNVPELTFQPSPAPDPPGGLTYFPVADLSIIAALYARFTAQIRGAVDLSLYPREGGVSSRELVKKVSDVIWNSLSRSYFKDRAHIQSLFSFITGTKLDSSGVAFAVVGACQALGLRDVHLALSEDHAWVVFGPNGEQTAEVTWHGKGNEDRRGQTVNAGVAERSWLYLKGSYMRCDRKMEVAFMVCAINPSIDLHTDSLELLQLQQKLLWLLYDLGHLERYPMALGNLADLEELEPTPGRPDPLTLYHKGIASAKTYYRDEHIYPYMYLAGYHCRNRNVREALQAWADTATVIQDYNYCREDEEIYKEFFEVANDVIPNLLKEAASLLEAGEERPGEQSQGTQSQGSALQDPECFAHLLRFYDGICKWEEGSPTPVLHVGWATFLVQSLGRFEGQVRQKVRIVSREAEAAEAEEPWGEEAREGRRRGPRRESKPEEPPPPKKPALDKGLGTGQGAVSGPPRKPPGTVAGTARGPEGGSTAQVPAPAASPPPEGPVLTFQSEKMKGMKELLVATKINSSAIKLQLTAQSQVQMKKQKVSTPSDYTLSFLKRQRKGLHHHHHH
Nature of the series: Menin/MLL homogenous time-resolved fluorescence (HTRF) assay. Format: binding. Particulars: 30 min incubation. A digest of the protocol:
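Competition binding read by time-resolved FRET (FITC 520 nm over terbium 490 nm) after compound meets labeled menin 1-610-His […] for 30 min, then FITC-MBM1 (75 nM) for 15 min, ambient temperature, 0.5% DMSO. Eleven-point four-fold dilutions, usually starting at 10 μM, fitted to four-parameter curves for IC50.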
(In general: TR-FRET usually uses a lanthanide donor and a delayed reading to cut background.)

Series [2] is described as follows: Dynamic vapor sorption (DVS) moisture sorption analysis. The series is classed as physicochemical. The method, then: Dynamic Vapor Sorption (DVS)
The moisture sorption analysis (DVS) was performed using a ProUmid GmbH & Co. KG Vsorp Enhanced dynamic vapor sorption apparatus. The moisture profile was evaluated by monitoring vapor adsorption/desorption over the range of 0 to 90% relative humidity at 25° C. The sample weight equilibrium criteria were set at <0.01% change in 45 min with minimum and maximum time of acclimation at 50 min and 120 min, respectively. The moisture profile consisted of 2 cycles of vapor adsorption/desorption.
In the humidity range of 20-90% RH, the crystalline form adsorbs and desorbs moisture slowly and reversibly up to 2.5% by mass on average. Based on DVS, the crystalline HCl salt Form, at equilibrium, can contain around 3 equivalents of water (8.5-9.5% total moisture mass) at common ambient RH of 40% to 75%.

The subject of a further series is KO-52 cells. Nature of the series: Proliferation assay (spheroid confluence, 8 days), KO-52 control cell line. The series is classed as cell-based, human. The conditions noted are these: Homo sapiens, read-out: spheroid assay_KO-52 IC50. The method, then: (§1) The anti-proliferative effect of menin/MLL protein/protein interaction inhibitor test compounds was assessed in human leukemia cell lines. The cell line MOLM14 harbors a MLL translocation and expresses the MLL fusion protein MLL-AF9, respectively, as well as the wildtype protein from the second allele. OCI-AML3 cells that carry the NPM1c gene mutation were also tested. […] KO-52 was used as a control cell line containing two MLL (KMT2A) wildtype alleles in order to exclude compounds that display general cytotoxic effects.
(§2) MOLM14 cells were cultured in RPMI-1640 (Sigma Aldrich) supplemented with 10% heat-inactivated fetal bovine serum (HyClone), 2 mM L-glutamine (Sigma Aldrich) and 50 μg/ml gentamycin (Gibco). KO-52 and OCI-AML3 cell lines were propagated in alpha-MEM (Sigma Aldrich) supplemented with 20% heat-inactivated fetal bovine serum (HyClone), 2 mM L-glutamine (Sigma Aldrich) and 50 μg/ml gentamycin (Gibco).
(§3) In order to assess the anti-proliferative effects, 200 MOLM14 cells, 200 OCI-AML3 cells or 300 KO-52 cells were seeded in 200 μl media per well in 96-well round bottom, ultra-low attachment plates (Costar, catalogue number 7007). Cell seeding numbers were chosen based on growth curves to ensure linear growth throughout the experiment. Test compounds were added at different concentrations and the DMSO content was normalized to 0.3%. Cells were incubated for 8 days at 37° C. and 5% CO2. Spheroid like growth was measured in real-time by live-cell imaging (IncuCyteZOOM, Essenbio, 4×objective) acquiring images at day 8. Confluence (%) as a measure of spheroid size was determined using an integrated analysis tool.
(§4) In order to determine the effect of the test compounds over time, the confluence in each well as a measure of spheroid size, was calculated. Confluence of the highest dose of a reference compound was used as baseline for the LC (Low control) and the confluence of DMSO treated cells was used as 0% cytotoxicity (High Control, HC).
(§5) Absolute IC50 values were calculated as percent change in confluence as follows:
(§6) LC=Low Control: cells treated with e.g. 1 μM of the cytotoxic agent staurosporin, or e.g. cells treated with a high concentration of an alternative reference compound
(§7) HC=High Control: Mean confluence (%) (DMSO treated cells)
(§8) % Effect=100−(100*(Sample−LC)/(HC−LC))
(§9) GraphPad Prism (version 7.00) was used to calculate the IC50. Dose-response equation was used for the plot of % Effect vs Log10 compound concentration with a variable slope and fixing the maximum to 100% and the minimum to 0%.

The next series has as its system OCI-AML3 cells. The series is described as follows: Proliferation assay (spheroid confluence, 8 days), OCI-AML3. The conditions noted are these: read-out: spheroid assay_OCI-AML3 IC50. Format: cell-based, human. The method, then:
as §1, §2, §3, §4, §5, §6, §7, §8, §9

The subject of a further series is MOLM14 cells. Nature of the series: Proliferation assay (spheroid confluence, 8 days), MOLM14. Particulars: read-out: spheroid assay_MOLM14 IC50. The series is classed as cell-based, human. The essentials:
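Absolute IC50 derived from spheroid confluence imaged on day 8, scaled between DMSO (0%) and a cytotoxic low control such as 1 μM staurosporin, fitted with variable slope, bounds fixed at 0 and 100%. Seeding 200 cells/well (300 for KO-52), ultra-low attachment plates, 0.3% DMSO, 37° C.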

A further series deals with MEIS1 mRNA expression. The series is described as follows: MEIS1 mRNA expression assay (Quantigene Singleplex) in MOLM14 cells. Format: cell-based, human. Particulars: 48 hours incubation. The essentials: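 Read-out: MEIS1 transcript counts, background-subtracted and divided by RPL28, expressed as fold change over DMSO-treated cells, then dose-response modelled for IC50. MOLM14 cells (3,750/well) received graded compound for 48 h before lysis and QuantiGene hybridization at 55 °C.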

The mark [3] stands for this setting: common ambient RH of 40% to 75%.
[4] abbreviates: Homo sapiens, OCI-AML-3, OCI-AML3.

For `CC(=O)N1CCC(CN2CC[C@@H](Cc3cn(-c4ccc(F)cc4C(=O)N(C)C(C)C)c4cncc(C)c34)C2)CC1.Cl` [Compound 51a], in series [1], the IC50 was 0.024 nM. In series [2] (0 to 90% relative humidity, 25° C., 2 cycles of adsorption/desorption), the “hygroscopicity of the crystalline form (DVS change in mass plot)” value is on record as “hygroscopic”. Further, in series [2] (XRPD of the fraction obtained after DVS), the “solid-state form change after the DVS test (XRPD compared with the starting material)” value is recorded as “No indication of a solid-state form change was observed”. For the same compound, in series [2] (below 10% RH, to complete dehydrated state at 0% RH), the “dehydration behaviour at low relative humidity” value is reported as “dehydrates rapidly”. Moreover, in series [2] (setting [3]), the “total moisture mass at equilibrium” value was 8.5-9.5% and the “water content at equilibrium” value is “around 3 equivalents of water”. In series [2] (humidity range of 20-90% RH, 25° C.), the “moisture adsorbed and desorbed (slowly and reversibly), on average” value is reported as “up to 2.5 % by mass”.
Turning to `CNC(=O)N1CCC(CN2CC[C@H](Cc3cn(-c4ccc(F)cc4C(=O)N(C)C(C)C)c4cncc(C)c34)C2)CC1` (single isomer, unassigned) [Compound 101], the IC50 with KO-52 cells amounted to 3100 nM; in series [1] it was 0.041 nM; with OCI-AML3 cells (setting [4]), 8 nM.
As to `CCN(C(=O)c1cc(F)ccc1-n1cc(CC2CN(C(C(C)C)[C@H]3C[C@H](N4C[C@H]5CN(C(C)=O)C[C@@H]5C4)C3)C2)c2c(C)cncc21)C(C)C` (mixture of isomers) [Compound 38b], the IC50 in the series with KO-52 cells was found to be 1200 nM; in series [1] it was 0.013 nM; with MOLM14 cells (Homo sapiens, MOLM-14, MOLM14), 2 nM.
In the case of `Cc1cncc2c1c(C[C@@H]1CCN(CC3CCNC(=O)CC3)C1)cn2-c1ccc(F)cc1C(=O)N1CCC[C@H]1C` (single isomer, unassigned) [Compound 353b], the figures for the IC50 (in series [1]; with MEIS1 mRNA expression; with OCI-AML3 cells (OCI-AML3)) were 0.238 nM, 139 nM and 236 nM, respectively.
On to `COCC(=O)N1CCC(C(C)N2CCC(Cc3cn(-c4ccc(F)cc4C(=O)N(C)C(C)C)c4cncc(C)c34)C2)CC1` (single isomer, unassigned) [Compound 117a], for which the IC50 was 1600 nM with KO-52 cells, 0.088 nM in series [1] and 7 nM in the series on OCI-AML3 cells (setting [4]).
Take `Cc1cncc2c1c(CC1CN(CC3CCOCC3)C1)cn2-c1ccc(F)cc1S(=N)(=O)C(C)C` (stereo not shown) [Compound 80]: the IC50 in the series with KO-52 cells was 7200 nM; in series [1] it was 0.116 nM; with MOLM14 cells (Homo sapiens, MOLM-14, MOLM14), 99 nM.
In the case of `CN=S(=O)(c1cc(F)ccc1-n1cc(CC2CN(CC3CCOCC3)C2)c2c(C)cncc21)C(C)C` (stereo not shown) [Compound 79], the IC50 in the series with KO-52 cells worked out at 9400 nM; in series [1] it was 0.168 nM; in the series with MOLM14 cells (Homo sapiens, MOLM-14, MOLM14), 92 nM.
Taken in the same sequence, the figures for `Cc1cncc2c1c(C[C@@H]1CCN(CC3CCC(=O)N(C)CC3)C1)cn2-c1ccc(F)cc1C(=O)N(C)C(C)C` (stereo partly shown) [Compound 184] were 7400 nM, 0.06 nM and 26 nM.
Take `CCN(C(=O)c1cc(F)ccc1-n1cc(CC2CN(C(C(C)C)[C@H]3C[C@@H](N4CCN(C(C)=O)CC4)C3)C2)c2c(C)cncc21)C(C)C` (stereo partly shown) [Compound 35a]: the IC50 in the series on KO-52 cells stood at 1500 nM; in series [1], 0.059 nM; in the series on MEIS1 mRNA expression (Homo sapiens, MOLM-14, 48 h), 21 nM.
As to `Cc1cncc2c1c(C[C@@H]1CCN(C[C@H]3CCCCO3)C1)cn2-c1ccc(F)cc1C(=O)N(C)C(C)C` (single isomer, unassigned) [Compound 147a], the IC50 in series [1] was 0.082 nM; with MEIS1 mRNA expression (Homo sapiens, MOLM-14, 48 h) it was 52 nM; in the series on MOLM14 cells (Homo sapiens, MOLM-14, MOLM14) it was 10 nM.
For the compound `CNC(=O)N1CCC(CN2CC[C@H](Cc3cn(-c4ccc(F)cc4C(=O)N(C)C(C)C)c4cncc(C)c34)C2)CC1` [Compound 168], the IC50 in series [1] turned out to be 0.1 nM; in the series on MEIS1 mRNA expression, 16 nM; in the series with MOLM14 cells (MOLM14) it was 8 nM.
